In patent US8865756B2, “Inhibitors of HCV NS5A” (Presidio Pharmaceuticals, Inc., priority 2008, dated 2014):

Test system: HCV 1b_Huh-Luc/Neo-ET cell line persistently expressing a bicistronic genotype 1b replicon in Huh 7 cells
Test: HCV replicon assay (luciferase readout)
Assay type: cell-based
Details: Hepatitis C virus, Huh-7, 72 h, read-out: Inhibition of HCV genotype 1b
Procedure, shortened: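 EC50, determined repeatedly, comes from a four-parameter logistic fit of luciferase signal as percent of untreated control. Readout follows 72 h compound exposure, in triplicate, of the HCV 1b_Huh-Luc/Neo-ET replicon line.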

Q: For `COC(=O)N1CCC[C@H]1C(=O)N1CCC[C@H]1c1ncc(-c2ccc(C#Cc3ccc4nc([C@@H]5CCCN5C(=O)[C@@H]5CCCN5C(=O)OC)[nH]c4c3)cc2)[nH]1` [Compound 1063], which EC50 is on record?
A: Its EC50 is 10 to 999 nM.

Q: Which EC50 does the source give for `COC(=O)N[C@@H](CC(=O)N1CCC[C@H]1c1ncc(-c2ccc(C#Cc3ccc4nc([C@@H]5CCCN5C(=O)C[C@H](NC(=O)OC)C(C)C)[nH]c4c3)cc2)[nH]1)C(C)C` [Compound 1064] here?
A: The EC50 was 10 to 999 nM.

Q: For `COC(=O)N[C@H](CC(=O)N1CCC[C@H]1c1ncc(-c2ccc(C#Cc3ccc4nc([C@@H]5CCCN5C(=O)C[C@@H](NC(=O)OC)C(C)C)[nH]c4c3)cc2)[nH]1)C(C)C` [Compound 1065], which EC50 is on record?
A: The EC50 was 10 to 999 nM.

Q: How did the EC50 turn out when `COCCOc1c(C#Cc2ccc3nc([C@@H]4CCCN4C(=O)[C@@H](NC(=O)OC)C(C)C)[nH]c3c2)ccc(-c2cnc([C@@H]3CCCN3C(=O)[C@H](NC(=O)OC)C(C)C)[nH]2)c1OCCOC` [Compound 1066] was run?
A: Its EC50 is under 1 nM.

Q: With `COC(=O)N[C@@H](CC(C)C)C(=O)N1CCC[C@H]1c1ncc(-c2ccc(C#Cc3ccc4nc([C@@H]5CCCN5C(=O)[C@H](CC(C)C)NC(=O)OC)[nH]c4c3)cc2)[nH]1` [Compound 1067] as the compound, how does the EC50 read?
A: Its EC50 is under 1 nM.

Q: With `COC(=O)N[C@H](C(=O)N1CC[C@H](O)[C@H]1c1ncc(-c2ccc(C#Cc3ccc4nc([C@@H]5CCCN5C(=O)[C@@H](NC(=O)OC)C(C)C)[nH]c4c3)cc2)[nH]1)C(C)C` [Compound 1068] as the compound, how does the EC50 read?
A: The EC50 was under 1 nM.

Q: Which EC50 does the source give for `COC(=O)N[C@H](C(=O)N1CCC[C@H]1c1ncc(-c2ccc(C#Cc3ccc4nc([C@@H]5CCCN5C(=O)[C@@H](NC(=O)OC)C5CCOCC5)[nH]c4c3)cc2F)[nH]1)C1CCOCC1` [Compound 1070] here?
A: Its EC50 is under 1 nM.

Q: Which EC50 does the source give for `COC(=O)N[C@H](C(=O)N1CCC[C@H]1c1nc(-c2cnc3cc(C#Cc4cnc([C@@H]5CCCN5C(=O)[C@@H](NC(=O)OC)C(C)C)[nH]4)ccc3c2)c[nH]1)C(C)C` [Compound 1076] here?
A: The EC50 was under 1 nM.

Q: Which EC50 does the source give for `COC(=O)N[C@H](C(=O)N1CCC[C@H]1c1nc(-c2ccc3cc(C#Cc4cnc([C@@H]5CCCN5C(=O)[C@H](NC(=O)OC)c5ccccc5)[nH]4)ccc3c2)c[nH]1)C(C)C` [Compound 1077] here?
A: The EC50 was under 1 nM.

Q: How did the EC50 turn out when `COC(=O)N[C@H](C(=O)N1CCC[C@H]1c1nc(-c2ccc3cc(C#Cc4cnc([C@@H]5CCCN5C(=O)[C@@H](NC(=O)OC)C(C)C)[nH]4)ccc3c2)c[nH]1)c1ccccc1` [Compound 1078] was run?
A: Its EC50 is under 1 nM.

Q: With `COC(=O)N[C@H](C(=O)N1CCC[C@H]1c1nc(-c2ccc3cc(C#Cc4cnc([C@@H]5CCCN5C(=O)[C@@H](NC(=O)OC)C5CCOCC5)[nH]4)ccc3c2)c[nH]1)C(C)C` [Compound 1079] as the compound, how does the EC50 read?
A: The EC50 was under 1 nM.

Q: Which EC50 does the source give for `COC(=O)N[C@H](C(=O)N1CCC[C@H]1c1nc2ccc(C#Cc3ccc(-c4ccc5nc([C@@H]6CCCN6C(=O)[C@@H](NC(=O)OC)C(C)C)[nH]c5c4)nc3)cc2[nH]1)C(C)C` [Compound 1083] here?
A: The EC50 was under 1 nM.

Q: Which EC50 does the source give for `COC(=O)N[C@H](C(=O)N1CCC[C@H]1c1ncc(C#Cc2ccc(-c3ccc4nc([C@@H]5CCCN5C(=O)[C@@H](NC(=O)OC)C(C)C)[nH]c4c3)cc2)[nH]1)C(C)C` [Compound 1084] here?
A: Its EC50 is under 1 nM.

Q: With `COC(=O)N[C@H](C(=O)N1CCC[C@H]1c1nc2ccc(-c3ccc(C#Cc4cnc([C@@H]5CCCN5C(=O)[C@H](NC(=O)OC)c5ccccc5)[nH]4)cc3)cc2[nH]1)C(C)C` [Compound 1085] as the compound, how does the EC50 read?
A: Its EC50 is under 1 nM.

Q: How did the EC50 turn out when `COC(=O)N[C@H](C(=O)N1CCC[C@H]1c1ncc(C#Cc2ccc(-c3ccc4nc([C@@H]5CCCN5C(=O)[C@@H](NC(=O)OC)C(C)C)[nH]c4c3)nc2)[nH]1)C(C)C` [Compound 1086] was run?
A: The EC50 was under 1 nM.

Q: With `COC(=O)N[C@H](C(=O)N1CCC[C@H]1c1ncc(C#Cc2ccc(-c3ccc4nc([C@@H]5CCCN5C(=O)[C@H](NC(=O)OC)c5ccccc5)[nH]c4c3)nc2)[nH]1)C(C)C` [Compound 1087] as the compound, how does the EC50 read?
A: Its EC50 is under 1 nM.

Q: For `COC(=O)N[C@H](C(=O)N1CCC[C@H]1c1nc(-c2cnc3cc(C#Cc4ccc(-c5cnc([C@@H]6CCCN6C(=O)[C@@H](NC(=O)OC)C(C)C)[nH]5)cc4)ccc3c2)c[nH]1)C(C)C` [Compound 1088], which EC50 is on record?
A: Its EC50 is 1 to 9.9 nM.

Q: `COC(=O)N[C@H](C(=O)N1CCC[C@H]1c1nc(-c2cnc3cc(C#Cc4ccc(-c5cnc([C@@H]6CCCN6C(=O)[C@@H](NC(=O)OC)c6ccccc6)[nH]5)cc4)ccc3c2)c[nH]1)c1ccccc1` [Compound 1089] was tested. Which EC50 did it give?
A: Its EC50 is 1 to 9.9 nM.

Q: `COC(=O)N[C@H](C(=O)N1CCC[C@H]1c1nc2c([nH]1)-c1ccc(C#Cc3ccc(-c4cnc([C@@H]5CCCN5C(=O)[C@@H](NC(=O)OC)C5CCOCC5)[nH]4)cc3)cc1CC2)C(C)C` [Compound 1091] was tested. Which EC50 did it give?
A: Its EC50 is under 1 nM.

Q: How did the EC50 turn out when `COC(=O)N[C@H](C(=O)N1CCC[C@H]1c1nc2ccc3cc(C#Cc4ccc(-c5cnc([C@@H]6CCCN6C(=O)[C@@H](NC(=O)OC)C6CCOCC6)[nH]5)cc4)ccc3c2[nH]1)C(C)C` [Compound 1092] was run?
A: The EC50 was under 1 nM.

Q: Which EC50 does the source give for `COC(=O)N[C@H](C(=O)N1CCC[C@H]1c1nc2ccc3cc(C#Cc4ccc(-c5cnc([C@@H]6CCCN6C(=O)[C@H](NC(=O)OC)c6ccccc6)[nH]5)cc4)ccc3c2[nH]1)C(C)C` [Compound 1093] here?
A: The EC50 was under 1 nM.

Q: For `COC(=O)N[C@H](C(=O)N1CCC[C@H]1c1ncc(-c2ccc(C#Cc3ccc4c(c3)CCc3nc([C@@H]5CCCN5C(=O)[C@@H](NC(=O)OC)C(C)C)[nH]c3-4)cc2)[nH]1)C(C)C` [Compound 1094], which EC50 is on record?
A: Its EC50 is under 1 nM.

Q: How did the EC50 turn out when `COC(=O)N[C@H](C(=O)N1CCC[C@H]1c1ncc(-c2ccc(C#Cc3ccc4c(ccc5nc([C@@H]6CCCN6C(=O)[C@@H](NC(=O)OC)C(C)C)[nH]c54)c3)cc2)[nH]1)C(C)C` [Compound 1095] was run?
A: Its EC50 is under 1 nM.

Q: `COC(=O)N[C@H](C(=O)N1CCC[C@H]1c1ncc(-c2ccc(C#Cc3ccc4c(c3)CCCc3nc([C@@H]5CCCN5C(=O)[C@@H](NC(=O)OC)C(C)C)[nH]c3-4)cc2)[nH]1)C(C)C` [Compound 1096] was tested. Which EC50 did it give?
A: The EC50 was under 1 nM.

Q: `COC(=O)N[C@H](C(=O)N1CCC[C@H]1c1nc2c([nH]1)-c1ccc(C#Cc3ccc(-c4cnc([C@@H]5CCCN5C(=O)[C@@H](NC(=O)OC)C5CCOCC5)[nH]4)cc3)cc1CCC2)C(C)C` [Compound 1097] was tested. Which EC50 did it give?
A: Its EC50 is under 1 nM.

Q: For `COC(=O)N[C@H](C(=O)N1CCC[C@H]1c1nc2c([nH]1)-c1ccc(C#Cc3ccc(-c4cnc([C@@H]5CCCN5C(=O)[C@H](NC(=O)OC)c5ccccc5)[nH]4)cc3F)cc1CC2)C(C)C` [Compound 1098], which EC50 is on record?
A: The EC50 was under 1 nM.

Q: For `COC(=O)N[C@H](C(=O)N1CCC[C@H]1c1nc2ccc3cc(C#Cc4ccc(-c5cnc([C@@H]6CCCN6C(=O)[C@@H](NC(=O)OC)C6CCOCC6)[nH]5)cc4F)ccc3c2[nH]1)C(C)C` [Compound 1099], which EC50 is on record?
A: Its EC50 is under 1 nM.

Q: For `COC(=O)N[C@H](C(=O)N1CCC[C@H]1c1nc2ccc3cc(C#Cc4ccc(-c5cnc([C@@H]6CCCN6C(=O)[C@H](NC(=O)OC)c6ccccc6)[nH]5)cc4F)ccc3c2[nH]1)C(C)C` [Compound 1100], which EC50 is on record?
A: Its EC50 is under 1 nM.
